Reference: patent US20210346329A1, “TCA CYCLE INTERMEDIATES AND METHODS OF USE THEREOF” (IMBRIA PHARMACEUTICALS, INC., priority 2018, published 2021)
Several values for one entry are separate records, joined by “and”; a condition that tells them apart may be missing. Equal values may be shown once. Read-outs that look alike come from different tables or passages of the source.

From the text: Concentrations versus time data are plotted in FIG. 1 through FIG. 6.
[1] = SC 10 mg/kg, individual rat (777)
[2] = SC 10 mg/kg, individual rats 776, 777, 778, 10 mg/kg
[3] = SC 50 mg/kg, individual rats 779, 780, 781, 50 mg/kg
[4] = SC 100 mg/kg, individual rats 782, 783, 784, 100 mg/kg
[5] = SC 100 mg/kg, individual rats 782, 783, 100 mg/kg

SMILES: O=[13C](O)[13CH2][13CH2][13C](=O)O [^13C4-succinate]
- Time post dosing at which maximum plasma concentrations were observed (SC 10 mg/kg): 15 min
- Plasma concentration (SC 10 mg/kg, 0.50 hr, individual rats 776, 777, 778, 10 mg/kg): 1280 ng/mL (2×) and 854 ng/mL
- Plasma concentration (SC 10 mg/kg, 0.50 hr, mean): 1138 ng/mL
- Plasma concentration (SC 10 mg/kg, 1.0 hr, individual rats 776, 777, 778, 10 mg/kg): 430 ng/mL and 220 ng/mL and 415 ng/mL
- Plasma concentration (SC 10 mg/kg, 1.0 hr, mean): 355 ng/mL
- Plasma concentration (SC 10 mg/kg, 2.0 hr, individual rats 776, 777, 778, 10 mg/kg): 28.5 ng/mL and 10.6 ng/mL and 23.2 ng/mL
- Plasma concentration (SC 10 mg/kg, 2.0 hr, mean): 20.8 ng/mL
- Plasma concentration (SC 10 mg/kg, 4.0 hr, mean): 7.59 ng/mL
- AUC∞ [1]: 1030 ng·h/mL
- Dose-normalized AUC∞ [1]: 103 kg·ng·h/mL/mg
- t1/2 [1]: 27.2 min
- tmax (SC 10 mg/kg, individual rats 776, 777, 778): 15 min
- Bioavailability (SC 10 mg/kg, individual rats 776, 777, 778, vs average IV dose-normalized AUClast, 10 mg/kg): 98.9% and 47.7% and 76.7%
- AUClast [2]: 2131 ng·h/mL and 1027 ng·h/mL and 1653 ng·h/mL
- Cmax [2]: 5090 ng/mL and 2090 ng/mL and 3260 ng/mL
- MRTlast [2]: 30.2 min and 29.3 min and 31.6 min
- AUClast (SC 10 mg/kg, mean): 1604 ng·h/mL
- Cmax (SC 10 mg/kg, mean): 3480 ± 1512 ng/mL
- MRTlast (SC 10 mg/kg, mean): 30.4 min
- tmax (SC 10 mg/kg, mean): 15 min
- Bioavailability (SC 10 mg/kg, mean, vs average IV dose-normalized AUClast): 74.4±25.7%
- Dose-normalized AUClast (SC 10 mg/kg, mean, 10 mg/kg): 160 ± 55.4 kg·ng·h/mL/mg
- Dose-normalized AUClast (SC 10 mg/kg, mean, listed as 13C4-Succinate, 10 mg/kg): 160 kg·ng·h/mL/mg
- Time post dosing at which maximum plasma concentrations were observed (SC 50 mg/kg): 15 min
- Plasma concentration (SC 50 mg/kg, 0.50 hr, individual rats 779, 780, 781, 50 mg/kg): 9750 ng/mL and 15500 ng/mL and 11100 ng/mL
- Plasma concentration (SC 50 mg/kg, 0.50 hr, mean): 12117 ng/mL
- Plasma concentration (SC 50 mg/kg, 1.0 hr, individual rats 779, 780, 781, 50 mg/kg): 1020 ng/mL and 2420 ng/mL and 2020 ng/mL
- Plasma concentration (SC 50 mg/kg, 1.0 hr, mean): 1820 ng/mL
- Plasma concentration (SC 50 mg/kg, 2.0 hr, individual rats 779, 780, 781, 50 mg/kg): 102 ng/mL and 163 ng/mL and 122 ng/mL
- Plasma concentration (SC 50 mg/kg, 2.0 hr, mean): 129 ng/mL
- Plasma concentration (SC 50 mg/kg, 4.0 hr, individual rats 779, 780, 781, 50 mg/kg): 15.1 ng/mL and 10.3 ng/mL and 12.3 ng/mL
- Plasma concentration (SC 50 mg/kg, 4.0 hr, mean): 12.6 ng/mL
- Plasma concentration (SC 50 mg/kg, 8.0 hr, mean): 18.8 ng/mL
- tmax (SC 50 mg/kg, individual rats 779, 780, 781): 15 min
- Bioavailability (SC 50 mg/kg, individual rats 779, 780, 781, vs average IV dose-normalized AUClast, 50 mg/kg): 78.0% and 116% and 98.7%
- AUClast [3]: 8405 ng·h/mL and 12496 ng·h/mL and 10632 ng·h/mL
- Cmax [3]: 14800 ng/mL and 18300 ng/mL and 18900 ng/mL
- Dose-normalized AUClast [3]: 168 kg·ng·h/mL/mg and 250 kg·ng·h/mL/mg and 213 kg·ng·h/mL/mg
- MRTlast [3]: 33.5 min and 31.8 min and 30.3 min
- AUClast (SC 50 mg/kg, mean): 10511 ng·h/mL
- Cmax (SC 50 mg/kg, mean): 17333 ± 2214 ng/mL
- MRTlast (SC 50 mg/kg, mean): 31.9 min
- tmax (SC 50 mg/kg, mean): 15 min
- Bioavailability (SC 50 mg/kg, mean, vs average IV dose-normalized AUClast): 97.6±19.0%
- Dose-normalized AUClast (SC 50 mg/kg, mean, 50 mg/kg): 210 ± 41.0 kg·ng·h/mL/mg
- Dose-normalized AUClast (SC 50 mg/kg, mean, listed as 13C4-Succinate, 50 mg/kg): 210 kg·ng·h/mL/mg
- Time post dosing at which maximum plasma concentrations were observed (SC 100 mg/kg): 15 min
- Plasma concentration (SC 100 mg/kg, 0.50 hr, individual rats 782, 783, 784, 100 mg/kg): 24500 ng/mL and 13900 ng/mL and 25200 ng/mL
- Plasma concentration (SC 100 mg/kg, 0.50 hr, mean): 21200 ng/mL
- Plasma concentration (SC 100 mg/kg, 1.0 hr, individual rats 782, 783, 784, 100 mg/kg): 6840 ng/mL and 4980 ng/mL and 7750 ng/mL
- Plasma concentration (SC 100 mg/kg, 1.0 hr, mean): 6523 ng/mL
- Plasma concentration (SC 100 mg/kg, 2.0 hr, individual rats 782, 783, 784, 100 mg/kg): 364 ng/mL and 435 ng/mL and 779 ng/mL
- Plasma concentration (SC 100 mg/kg, 2.0 hr, mean): 526 ng/mL
- Plasma concentration (SC 100 mg/kg, 4.0 hr, individual rats 782, 783, 784, 100 mg/kg): 103 ng/mL and 40.8 ng/mL and 52.9 ng/mL
- Plasma concentration (SC 100 mg/kg, 4.0 hr, mean): 65.6 ng/mL
- Plasma concentration (SC 100 mg/kg, 8.0 hr, mean): 25.9 ng/mL
- tmax (SC 100 mg/kg, individual rats 782, 783, 784): 15 min
- Bioavailability (SC 100 mg/kg, individual rats 782, 783, 784, vs average IV dose-normalized AUClast, 100 mg/kg): 115% (2×) and 72.0%
- AUClast [4]: 24683 ng·h/mL and 15518 ng·h/mL and 24689 ng·h/mL
- Cmax [4]: 37900 ng/mL and 23100 ng/mL and 32000 ng/mL
- Dose-normalized AUClast [4]: 247 hr · kg · ng/mL/mg (2×) and 155 hr · kg · ng/mL/mg
- MRTlast [4]: 35.8 min and 37.7 min and 39.6 min
- AUC∞ [5]: 24719 ng·h/mL and 15530 ng·h/mL
- Dose-normalized AUC∞ [5]: 247 kg·ng·h/mL/mg and 155 kg·ng·h/mL/mg
- t1/2 [5]: 84 min and 44.8 min
